Experimental data from ChEMBL document CHEMBL6078723, “Novel steroidal β-carboline derivatives as promising antibacterial candidates against methicillin-resistant Staphylococcus aureus” (Eur J Med Chem, 2025).
Calls of active or inactive are those of the source. No cut-off for these calls is given here.

Columns and labels:
[1] = test system: Staphylococcus aureus; test: Antibacterial activity against Staphylococcus aureus CGMCC1.8721 in presence of phosphatidylglycerol; assay type: functional, organism-based
[2] = test system: Staphylococcus aureus; test: Induction of resistance development in Staphylococcus aureus CGMCC1.8721 assessed as fold increase in MIC at sub-lethal concentration following serial passages for 30 days relative to control; assay type: functional; conditions: time 30 day
[3] = test system: Staphylococcus aureus; test: Antibacterial activity against methicillin-resistant Staphylococcus aureus CGMCC1.12409 infected in mouse model assessed as reduction in bacterial clones at 5 mg/kg measured for 5 days; assay type: functional, organism-based; conditions: time 5.0 day
[4] = test system: Staphylococcus aureus; test: Antibacterial activity against methicillin-resistant Staphylococcus aureus CGMCC1.12409 infected in mouse model assessed as reduction in abscesses size at 5 mg/kg measured for 5 days; assay type: functional, organism-based; conditions: time 5.0 day
[5] = test system: Staphylococcus aureus; test: Antibacterial activity against methicillin-resistant Staphylococcus aureus CGMCC1.12409 infected in mouse model assessed as reduction in bacterial load at infection site at 5 mg/kg measured for 5 days relative to control; assay type: functional; parameters: scale not given: the % may be the effect or the level left; conditions: time 5 day
[6] = test system: Staphylococcus aureus; test: Antibacterial activity against methicillin-resistant Staphylococcus aureus CGMCC1.12409 infected in mouse model assessed as reduction in neutrophils in skin tissues at 5 mg/kg measured for 5 days by H and E staining based analysis; assay type: functional, organism-based; conditions: time 5.0 day
[7] = test system: Staphylococcus aureus; test: Antibacterial activity against methicillin-resistant Staphylococcus aureus CGMCC1.12409 infected in mouse model assessed as reduction in inflammation in skin tissues at 5 mg/kg measured for 5 days by H and E staining based analysis; assay type: functional, organism-based; conditions: time 5.0 day
[8] = test system: Staphylococcus aureus; test: Antibacterial activity against methicillin-resistant Staphylococcus aureus ATCC 43300; assay type: functional
[9] = test system: Staphylococcus aureus; test: Antibacterial activity against Staphylococcus aureus CGMCC1.8721; assay type: functional
[10] = test system: Staphylococcus aureus; test: Antibacterial activity against methicillin-resistant Staphylococcus aureus CGMCC1.12409; assay type: functional
[11] = test system: Staphylococcus aureus; test: Bactericidal activity against Staphylococcus aureus CGMCC1.8721 by CLSI based method; assay type: functional
[12] = test system: Staphylococcus aureus; test: Bactericidal activity against methicillin-resistant Staphylococcus aureus CGMCC1.12409 by CLSI based method; assay type: functional
[13] = test system: Staphylococcus aureus; test: Bactericidal activity against methicillin-resistant Staphylococcus aureus ATCC 43300 by CLSI based method; assay type: functional
[14] = test system: Staphylococcus aureus; test: Bactericidal activity against methicillin-resistant Staphylococcus aureus ATCC 33591 by CLSI based method; assay type: functional
[15] = test system: Staphylococcus aureus; test: Antibacterial activity against methicillin-resistant Staphylococcus aureus ATCC 33591; assay type: functional

`CO[C@H]1/C=C/O[C@@]2(C)Oc3c(C)c(O)c4c(O)c(c(/C=N/N5CCN(C)CC5)c(O)c4c3C2=O)NC(=O)/C(C)=C\C=C\[C@H](C)[C@H](O)[C@@H](C)[C@@H](O)[C@@H](C)[C@H](OC(C)=O)[C@@H]1C` was tested, and the Activity [1] was “Active”.

`CCCCCCCCCC(=O)N[C@@H](Cc1c[nH]c2ccccc12)C(=O)N[C@@H](CC(N)=O)C(=O)N[C@@H](CC(=O)O)C(=O)N[C@@H]1C(=O)NCC(=O)N[C@@H](CCCN)C(=O)N[C@@H](CC(=O)O)C(=O)N[C@H](C)C(=O)N[C@@H](CC(=O)O)C(=O)NCC(=O)N[C@H](CO)C(=O)N[C@@H]([C@@H](C)CC(=O)O)C(=O)N[C@@H](CC(=O)c2ccccc2N)C(=O)O[C@@H]1C` was tested, and the Activity [1] was “inactive”.

In the case of `CNC(C)[C@@H]1CC[C@@H](N)[C@@H](O[C@H]2[C@H](O)[C@@H](O[C@H]3OC[C@](C)(O)[C@H](NC)[C@H]3O)[C@H](N)C[C@@H]2N)O1.CN[C@@H]1[C@@H](O)[C@@H](O[C@@H]2[C@@H](O)[C@H](O[C@H]3O[C@H](C(C)N)CC[C@H]3N)[C@@H](N)C[C@H]2N)OC[C@]1(C)O.CN[C@@H]1[C@@H](O)[C@@H](O[C@@H]2[C@@H](O)[C@H](O[C@H]3O[C@H](CN)CC[C@H]3N)[C@@H](N)C[C@H]2N)OC[C@]1(C)O` (some centres undefined), the Activity [1] is reported as “Active”.

`CCn1cc(C(=O)O)c(=O)c2cc(F)c(N3CCNCC3)cc21` [NORFLOXACIN] was tested, and the Activity [1] was “Active” and the “fold change (FC)” value [2] was 64.

In the case of `CN[C@H](CC(C)C)C(=O)N[C@H]1C(=O)N[C@@H](CC(N)=O)C(=O)N[C@H]2C(=O)N[C@H]3C(=O)N[C@H](C(=O)N[C@H](C(=O)O)c4cc(O)cc(O)c4-c4cc3ccc4O)[C@H](O)c3ccc(c(Cl)c3)Oc3cc2cc(c3O[C@@H]2O[C@H](CO)[C@@H](O)[C@H](O)[C@H]2O[C@H]2C[C@](C)(N)[C@H](O)[C@H](C)O2)Oc2ccc(cc2Cl)[C@H]1O` [VANCOMYCIN], the Activity [3] is reported as “Active”, the Activity [1] is reported as “Active” and the Activity [4] is reported as “Active”. The Activity [5] was 92.98%, the Activity [6] was “Active” and the Activity [7] was “Active”.

`COc1cccc(C[n+]2ccc3c([nH]c4ccc(OC)cc43)c2CC[C@H](C)[C@H]2CC[C@H]3[C@@H]4[C@H](O)C[C@@H]5C[C@H](O)CC[C@]5(C)[C@H]4C[C@H](O)[C@]23C)c1.[Br-]` gave an MIC [8] of 1 µg/mL, an MIC [9] of 1 µg/mL and an MIC [10] of 4 µg/mL. The MBC [11] was 2 µg/mL, the MBC [12] was 8 µg/mL and the MBC [13] was 4 µg/mL. For the same molecule, the MBC [14] was 8 µg/mL and the MIC [15] was 4 µg/mL.
